Data from a melting point compilation (Tetko et al.; mined from patent text by program, amines drawn as free bases though some values may be those of a salt).

First: CCn1cc(C)c(=S)[nH]c1=O
Second: Cc1[nH]c2ccccc2c1C=C1SC(=S)N(CC(=O)O)C1=O
The melting point of the first is lower: 205 to 206 °C for the first, 291 to 292 °C for the second.

Compared with `COC1=CCC2=C(CCC3C2CCC2(C)C(O)CCC32)C1` (centres undefined), `CC(C)NC(=O)CC(CC1(C(=O)N[C@H]2CCc3ccccc3N(CC(=O)O)C2=O)CCCC1)C(=O)O` (some centres undefined) is higher in melting point: 110 °C for the first, 145 °C for the second.

Compared with `O=CCC1Cc2ccc(F)cc2C1=O` (racemic), `CC1CC(=O)N(c2ccc(Cl)cc2)C(=O)C1` is higher in melting point: 62 °C for the first, 163 to 164 °C for the second.

First: CNC(=O)N1CCc2[nH]cnc2C1c1ccccc1 (centres undefined)
Second: CC(C)(C)OC(=O)NC1CCN(Cc2ccccc2)C1 (centres undefined)
The melting point of the first is higher: 180 °C for the first, 114 to 115 °C for the second.

First: CC[C@H](C)[C@H](NC(=O)Nc1ccccc1C(F)(F)F)C(=O)N[C@H](CO)Cc1c[nH]c2ccccc12
Second: Cc1cccc(CC(NC(=O)C(c2ccccc2)c2ccccc2)C(=O)NC(C#N)CCOc2cccc(C(=O)O)c2)c1 (centres undefined)
The melting point of the first is higher: 232 to 234 °C for the first, 169 to 170 °C for the second.

Compared with `CCOc1ccc(-c2ccc3c(c2)C=C(C(=O)Nc2ccc(CN(C)C4CCOCC4)cc2)CCS3(=O)=O)cc1F`, `CCC(C)(C)c1ccc(S(=O)(=O)N2C(=O)C(NCCN3CCOCC3)(c3ccccc3Cl)c3cc(Cl)ccc32)cc1` (centres undefined) is lower in melting point: 233 to 235 °C for the first, 147 °C for the second.

First: CCOC(=O)c1csc2cc(Oc3ccnc(N)n3)ccc12
Second: CCOC(=O)c1cnc2c3cc(OC)c(OC)cc3ccn2c1=O
The melting point of the first is lower: 144 to 145 °C for the first, 264 to 265 °C for the second.

Compared with `CC[C@@]12CC(=O)[C@](O)(c3ccccc3)C[C@H]1CCc1cc(O)ccc12`, `CC(C)(C)OC(=O)Nc1nc2cc(NC(=O)C(=O)N3CCC(Cc4ccccc4)CC3)ccc2[nH]1` is higher in melting point: 97 to 98 °C for the first, 192 °C for the second.

Compared with `COC(=O)CCCc1cc2nc(Cl)ccc2n1S(=O)(=O)c1ccc2c(c1)CCO2`, `COc1ccc(COc2cc(NC(C)=O)c(Cl)cc2C(=O)CCCCCl)cc1` is lower in melting point: 201 °C for the first, 147 to 149 °C for the second.

Compared with `COc1cc(C2c3cc4c(cc3C(NC3=CC(=O)N(CCCCCC(=O)O)C3=O)C3COC(=O)C23)OCO4)cc(OC)c1O` (centres undefined), `CCCCOc1nc(N)c2[nH]c(=O)n(CCCCN(CCN3CCOCC3)Cc3cccc(CC(=O)OC)c3)c2n1` is higher in melting point: 150 to 152 °C for the first, 189 to 190 °C for the second.

First: O=c1nc(-c2cccc(-n3cccn3)n2)sc2ccccc12
Second: C=C(c1ccc(I)cc1)C(O)(Cn1cncn1)c1ccccc1Cl (centres undefined)
The melting point of the first is higher: 253 to 254 °C for the first, 128 to 130 °C for the second.

First: CCOC(=O)CSc1nc(Cl)cc(NN=Cc2ccc(Cl)cc2)n1
Second: C=CCOc1ccc2c(c1)c(C)c(CCC(=O)O)n2Cc1ccc(Cl)cc1
The melting point of the first is higher: 162 to 165 °C for the first, 131 °C for the second.

First: O=C(NCc1ccc(Cl)cc1)c1cnc2cc(CCCO)ccc2c1O
Second: Cc1c(N)ccc2c(O)c(C(=O)NCc3ccc(Cl)cc3)cnc12
The melting point of the first is lower: 166 to 168 °C for the first, 256 to 258 °C for the second.

First: CC1(C)Oc2c(c(=O)n(Cc3ccccc3)c3ccccc23)[C@@H](NC(=O)CCCCl)[C@@H]1O (relative stereo)
Second: O=C(Cc1ccccc1[N+](=O)[O-])c1c(O)c2cccnc2n(-c2ccccc2)c1=O
The melting point of the first is lower: 176 to 178 °C for the first, 194 to 195 °C for the second.

First: CN=C(N)Nc1nc(CCCCNC(=NC#N)NC)cs1
Second: CCCc1nc(NN)nc(O)c1Cc1ccc(-c2ccccc2C#N)cc1
The melting point of the first is lower: 119 to 122 °C for the first, 191 °C for the second.

First: N#CCCn1cc(C#N)c([N+](=O)[O-])n1
Second: CCOC1=NS(=O)(=O)C(C#N)=C1N
The melting point of the first is lower: 137 to 139 °C for the first, 228 to 229 °C for the second.

Compared with `CC(C)(C)NC(=O)N1CC(Oc2cccc(C(F)(F)F)c2)C1`, `CC(=NO)c1ccc(C(F)(F)C(F)(F)c2ccccc2)cc1` is higher in melting point: 105 to 107 °C for the first, 137 to 139 °C for the second.

First: CCCCCCCCCCCCCCCCSCC(CNS(=O)(=O)CCCI)NC(C)=O (centres undefined)
Second: CCCCCCCCCCCCCCCCNC(=O)NCCCN(C)C
The melting point of the first is lower: 75 to 76 °C for the first, 78 to 79 °C for the second.

Compared with `Cc1nc(N2C[C@@H](C)N(Cc3cc(F)cc(F)c3)C2=O)sc1C(N)=O`, `CC(C)(O)CNC(=O)c1cccc(-c2cccc3cc(Cc4cc(F)cc(Cl)c4)sc23)c1` is lower in melting point: 212 to 213 °C for the first, 123 °C for the second.

First: Cc1cc(C)cc(-c2nc(NC(=O)c3ccncc3)sc2-c2ccncc2)c1
Second: NS(=O)(=O)c1ccc(-c2cccc(-c3nc(-c4ccc(C(F)(F)F)cc4F)cc(C(F)(F)F)n3)c2)s1
The melting point of the first is higher: 302 to 304 °C for the first, 192 °C for the second.

First: CCCc1c(C(=O)C(C)C)c2ccc(C(=O)OC)cc2n1Cc1ccccc1[N+](=O)[O-]
Second: CCOC(=O)c1ncc(Cn2c(NC3CCN(C(=O)OCC)CC3)nc3ccccc32)o1
The melting point of the first is higher: 166 °C for the first, 132 °C for the second.

First: CN(N=Cc1ccc([N+](=O)[O-])cc1)C1=NOCc2ccc(Cl)cc21
Second: O=S(=O)(/C=C/c1ccc(Cl)cc1)Nc1ccccc1Cl
The melting point of the first is higher: 251 °C for the first, 107 to 109 °C for the second.

First: CCOC1(OCC)C[C@@H](C(=O)O)[C@@H]1C(=O)O (relative stereo)
Second: CSC12SCC(COC(C)=O)(OS(C)(=O)=O)C(C(=O)OCc3ccc([N+](=O)[O-])cc3)N1C(=O)C2N=[N+]=[N-] (centres undefined)
The melting point of the first is lower: 118 to 120 °C for the first, 147 °C for the second.

First: O=C1NCC=NN1c1ccc(Cc2ccc(Cl)cc2)c(Cl)c1
Second: O=S(=O)(c1ccccc1)c1c(-c2ccc(Cl)cc2)[nH]c(C(F)(F)F)c1Cl
The melting point of the first is higher: 196 to 197 °C for the first, 158 to 161 °C for the second.

First: CCOP(=O)(/C=C/c1cn(-c2ccccc2)nc1OCc1ccc(OCc2nc(-c3cccc(C(=O)O)c3)oc2C)c(OC)c1)OCC
Second: C=Cc1cccc(-c2nc(CCOc3ccc(OC(C)(C)C(=O)O)cc3)c(C)o2)c1
The melting point of the first is higher: 148 to 149 °C for the first, 137 to 139 °C for the second.

Compared with `CS(=O)(=O)c1ccc(-c2ccc(Br)n2-c2ccc(F)cc2)cc1`, `CC=Cn1c(C)c(C)c2cnnc(OCc3ccc(F)cc3)c21` is lower in melting point: 174 to 176 °C for the first, 114 to 115 °C for the second.

Compared with `O=C(Nc1cccnc1Cl)c1ccco1`, `Nc1nccc(OCc2ccccc2)c1N` is higher in melting point: 102 °C for the first, 135 to 136 °C for the second.

First: Cc1nc2cc(O)c(C)cc2o1
Second: Cc1nc(-c2ccccc2)c(CC(C)C(=O)O)o1 (centres undefined)
The melting point of the first is higher: 198 to 200 °C for the first, 109 to 110 °C for the second.

First: O=C1Nc2ccc(Cl)c(Cl)c2C(=O)N2CCC[C@@H]12
Second: COc1cc2c(cc1OC)C(C(c1ccccc1)N1CCCCC1)OC2=O (centres undefined)
The melting point of the first is lower: 203 to 205 °C for the first, 213 to 214 °C for the second.

First: CCCCN(CCCC)CCCOc1ccc(C(=O)c2c(-c3ccccc3)cc3ccccn23)cc1
Second: CC(=O)Nc1ccc(C(=O)N2CC3CC(CN(Cc4ccccc4)C3)C2)cc1
The melting point of the first is lower: 92 to 93.5 °C for the first, 208 °C for the second.

First: CCNc1nc(C)c(-c2ccnc(Nc3ccc(N4CCOCC4)c(C)c3)n2)s1
Second: CCCN(C)c1ncc2cc(-c3ccc(C(=O)N4CCN(C)CC4)cc3)[nH]c2n1
The melting point of the first is lower: 213 to 214 °C for the first, 222 to 224 °C for the second.

First: O=c1[nH]c(=S)n2c3c1cnn3C(c1ccccc1)=CC2
Second: BrCCC1c2ccccc2-c2ccccc21
The melting point of the first is higher: 289 to 291 °C for the first, 48 to 49 °C for the second.

First: CC(C)(Cn1cncn1)C(O)(CCc1ccc2ccccc2c1)Cn1cncn1 (centres undefined)
Second: Cc1nc2c(-c3cccc(N4CCN(CCO)CC4)c3)cnn2c(N)c1-c1cccc(Cl)c1
The melting point of the first is lower: 77 to 80 °C for the first, 108 to 116 °C for the second.

Compared with `CCOc1ccc(C2=NNCCC2)cc1OCC`, `CC(=O)OC(CF)c1ccccc1S(N)(=O)=O` (centres undefined) is higher in melting point: 77 to 78 °C for the first, 122 to 124 °C for the second.

In the case of `CCCCCCCCCCCCCc1c[nH]c(C=O)c1`, the melting point was 61 to 64 °C.
